Results from EPA's ToxRefDB 2.

Experiments:
[1] = system: rat; conditions: Combined chronic toxicity/carcinogenicity, fischer, Oral, Feed, dose end: 2 year, group: systemic
[2] = system: rat; conditions: Subchronic oral toxicity in rodents, wistar, Feed, dose end: 13 week, group: systemic
[3] = system: dog; conditions: Chronic toxicity, beagle, Oral, Feed, dose end: 52 week, group: systemic, systemic / in life observation / clinical signs / feces
[4] = system: mouse; conditions: Carcinogenicity, b6c3f1, Oral, Feed, dose end: 18 month
[5] = system: rat; conditions: Combined chronic toxicity/carcinogenicity, fischer, Oral, Feed, dose end: 24 month
[6] = system: rat; conditions: Combined chronic toxicity/carcinogenicity, fischer, Oral, Feed, dose end: 24 month; remark: listed apart in the source
[7] = system: rat; conditions: Developmental neurotoxicity ChE Inhibition study; sprague dawley; Oral; Gavage/Intubation; dose end: 21 PND; group: cannot be grouped; cholinesterase / cholinesterase / cholinesterase / erythrocyte cholinesterase (che)
[8] = system: hamster; conditions: Subchronic oral toxicity in rodents, golden syrian, Feed, dose end: 13 week, group: systemic
[9] = system: mouse; conditions: Subchronic oral toxicity in rodents, b6c3f1, Feed, dose end: 13 week, group: systemic
[10] = system: rat; conditions: Subchronic oral toxicity in rodents, sprague dawley, Feed, dose end: 13 week, group: systemic
[11] = systemic / clinical chemistry / urea nitrogen / urea nitrogen
[12] = systemic / hematology / platelet / platelet + systemic / in life observation / body weight / body weight + systemic / in life observation / …
[13] = systemic / clinical chemistry / sodium / sodium
[14] = systemic / hematology / blood clotting / blood clotting - prothrombin time + systemic / hematology / blood clotting / blood clotting - …
[15] = discoloration + systemic / hematology / blood clotting / blood clotting - activated…
[16] = group: cholinesterase, cholinesterase / cholinesterase / cholinesterase / erythrocyte cholinesterase (che) + cholinesterase / cholinesterase / cholinesterase / …
[17] = group: systemic, systemic / in life observation / body weight / body weight + systemic / in life observation / food consumption / food consumption + systemic…
[18] = group: cholinesterase, cholinesterase / cholinesterase / cholinesterase / erythrocyte cholinesterase (che)
[19] = group: cholinesterase, cholinesterase / cholinesterase / cholinesterase / plasma cholinesterase (che)
[20] = group: cholinesterase, cholinesterase / cholinesterase / cholinesterase / plasma cholinesterase (che) + cholinesterase / cholinesterase / cholinesterase / brain …
[21] = group: systemic, systemic / hematology / mean corpuscular (cell) volume (mcv) / mean corpuscular (cell) volume (mcv) + systemic / hematology / mean …
[22] = group: systemic, systemic / in life observation / food consumption / food consumption + systemic / pathology microscopic / parathyroid gland / hyperplasia
[23] = group: systemic, systemic / pathology microscopic / parathyroid gland / hyperplasia
[24] = group: systemic, systemic / pathology microscopic / parathyroid gland / hyperplasia + systemic / hematology / erythrocyte (rbc) count differential / …
[25] = systemic / in life observation / body weight / body weight + systemic / in life observation / body weight / body weight gain + systemic / …
[26] = systemic / pathology microscopic / liver / cytoplasmic alteration + systemic / clinical chemistry / cholesterol / cholesterol + systemic / …
[27] = systemic / clinical chemistry / alkaline phosphatase (alp/alk) / alkaline phosphatase (alp/alk) + systemic / organ weight / kidney / …

With `CC(C)N1C(=O)c2ccccc2NS1(=O)=O` [Bentazon] the LEL [1, 11] was 9 mg/kg/day, the NEL [1, 11] was < 9 mg/kg/day and the LOAEL [1, 12] was 180 mg/kg/day. For the same compound, the NOAEL [1, 12] was 35 mg/kg/day, the LEL [2, 13] was 25.3 mg/kg/day and the NEL [2, 13] was < 25.3 mg/kg/day. For the same compound, the LOAEL [2, 14] was 243 mg/kg/day, the NOAEL [2, 14] was 77.8 mg/kg/day and the LOAEL ([3]; discoloration) was 13.1 mg/kg/day. The NEL [3, 15] was 3.2 mg/kg/day, the NOAEL [3, 15] was 3.2 mg/kg/day and the LEL ([3]; discoloration + systemic / in life observation / clinical signs / [other]) was 13.1 mg/kg/day.

`CCOC(=O)CC(SP(=S)(OC)OC)C(=O)OCC` (configuration not stated) [Malathion] was tested, and the LEL [4, 16] was 143 mg/kg/day, the LOAEL [4, 16] was 143 mg/kg/day and the NEL [4, 16] was 17.4 mg/kg/day. It also gave an NOAEL [4, 16] of 17.4 mg/kg/day, an LEL [4, 17] of 1480 mg/kg/day and an LOAEL [4, 17] of 1480 mg/kg/day. For the same compound, the NEL [4, 17] was 143 mg/kg/day, the NOAEL [4, 17] was 143 mg/kg/day and the LEL [5, 18] was 5 mg/kg/day. For the same compound, the NEL [5, 18] was < 5 mg/kg/day, the LOAEL [5, 19] was 29 mg/kg/day and the NOAEL [5, 20] was 4 mg/kg/day. The LOAEL [5, 21] was 359 mg/kg/day, the NOAEL [5, 21] was 29 mg/kg/day and the LEL [5, 22] was 4 mg/kg/day. The NEL [5, 22] was < 4 mg/kg/day, the LOAEL [6, 19] was 29 mg/kg/day and the NEL [6, 20] was 4 mg/kg/day. For the same compound, the NOAEL [6, 20] was 4 mg/kg/day, the LEL ([6]; group: cholinesterase, cholinesterase / cholinesterase / cholinesterase / plasma cholinesterase (che) + cholinesterase / cholinesterase / cholinesterase / …) was 29 mg/kg/day and the LEL [6, 23] was 4 mg/kg/day. The NEL [6, 23] was < 4 mg/kg/day, the LOAEL [6, 24] was > 739 mg/kg/day and the NOAEL [6, 24] was ≥ 739 mg/kg/day. For the same compound, the LEL [7] was 5 mg/kg/day, the LOAEL [7] was 5 mg/kg/day and the NEL [7] was < 5 mg/kg/day. The NOAEL [7] was < 5 mg/kg/day.

`Cc1cccc(Nc2cc(Cl)nc(SCC(=O)O)n2)c1C` [Pirinixic acid] showed an LOAEL [8, 25] of 0.7 mg/kg/day, an NOAEL [8, 25] of 0.4 mg/kg/day and an LEL [8, 26] of 0.4 mg/kg/day. The NEL [8, 26] was < 0.4 mg/kg/day, the LOAEL [9, 25] was 22 mg/kg/day and the NOAEL [9, 25] was 12 mg/kg/day. For the same compound, the LEL [9, 26] was 0.9 mg/kg/day, the NEL [9, 26] was < 0.9 mg/kg/day and the LEL [10, 27] was 0.3 mg/kg/day. The NEL [10, 27] was < 0.3 mg/kg/day, the NOAEL [10, 27] was 0.6 mg/kg/day and the LOAEL ([10]; systemic / pathology microscopic / liver / cytoplasmic alteration + systemic / in life observation / body weight / body weight + systemic / …) was 3 mg/kg/day.
